The nature of data set [1]: Dissolution of TPA and CHDA in water in stirred autoclave (Examples 1-3). The class given is physicochemical. Particulars: Examples 1-3: 1.7-1.9 wt % TPA, 28.1-48.2 wt % CHDA, 50-70 wt % water, 170-190 °C, 10 MPa, 15 minutes. How it is done: These examples are provided to highlight and validate the use of the method based on the dissolution chart for setting solvent and recirculation flows. For each of these examples, a slurry was prepared in a stirred autoclave, by mixing pre-determined amounts of water, TPA in powder form, and CHDA (22% trans) in powder form. The autoclave was then pressurized to 10 MPa using nitrogen gas and the temperature was then raised to the pre-determined level. Samples were drawn after 15 minutes of operation at this temperature level and analyzed to determine the compositions of TPA and CHDA. The predetermined feed mixture compositions and the pre-determined temperature levels for these experiments are shown in Table 1 below. Each pre-determined feed mixture composition is chosen such that it very closely corresponds to water/TPA and recirculation/TPA flow ratios that may be used in actual operation according to the preferred values from FIG. 6.

The nature of data set [2]: Solubility of TPA in water. In kind it is physicochemical. The text has this: Based on this, it is clearly evident that it will be beneficial to have processes for production of CHDM and CHDA directly from TPA without going through an intermediate TPA derivative. As noted initially, the main hurdle for such processes is getting TPA into the liquid phase.

With `O=C(O)C1CCC(C(=O)O)CC1` (centres unmarked) [CHDA, 1,4-cyclohexanedicarboxylic acid], the “Dissolution in water/TPA/CHDA mixture” value in data set [1] is “completely dissolved”.
On to `O=C(O)c1ccc(C(=O)O)cc1` [TPA, terephthalic acid], for which the “TPA Solubility” value in data set [2] (150 °C) was determined as 0.0022 wt fraction; in data set [2] (200 °C), 0.016 wt fraction; in data set [2] (250 °C) it was 0.11 wt fraction. For the same compound, in data set [1], the “Dissolution in water/TPA/CHDA mixture” value was “completely dissolved”.

For the origin of these results see patent publication US10329235B2, “System and method for producing 1,4-cyclohexanedimethanol and 1,4- cyclohexanedicarboxylic acid from terephthalic acid” (ClearWaterBay CHDM Technology Limited, priority 2017, dated 2019).
